Results on two compounds are retold here after patent US20240280493A1, “CELLULAR SENSORS BASED ON SURFACE-ENHANCED RAMAN SCATTERING AND APPLICATION THEREOF” (CHINA PHARMACEUTICAL UNIVERSITY, priority 2022, published 2024).

In the data set the test system is γH2AX. The data set is described as follows: Impurity genotoxicity assessment with the SERS cell-based sensor (L02 cells, Anti γH2AX@GPMT probe), fold of induction of γH2AX. The settings on record: 24 h incubation, MMS 50 μg/ml, SA 50 μg/ml, 5-Fu 0.1 μg/ml, NDEA 500 μg/ml, FI > 1.5 judged genotoxic. The protocol:
A human liver cell line L02 is cultured in DMEM containing 10% fetal calf serum, and put in a 37° C. incubator containing 5% CO2, and a sterile operation is performed in an entire process. When the cells grow to a logarithmic phase, L02 is inoculated into a 24-well plate containing a cell slide according to a density of 5000 cells/well, after being attached to a wall, a culture medium is replaced by a SERS probe culture medium with a concentration being 0.05 nM, and incubation is performed for 4 h.
The cell-based sensor culture medium is replaced by a culture medium containing impurities of different concentrations, continuous incubation is performed for 24 h, then the slide is taken out and put in a confocal inverted microscope bright and dark field imaging Raman spectrometer to be tested, the Raman signals of the test group and the control group are compared, and the impurity genotoxicity is assessed.
Methyl methanesulfonate (MMS), a salicylic acid (SA), 5-fluorouracil (5-Fu) and N-nitrosodiethylamine (NDEA) are selected respectively as genotoxic impurities of different structure types to be tested. […]

For the compound `O=C(O)c1ccccc1O` [SA, salicylic acid], the “FI value (fold of induction, concentration ratio of effector molecules of test group and control group)” value is listed as 1.02.
Regarding `CCN(CC)N=O` [NDEA, N-nitrosodiethylamine], the “FI value (fold of induction, concentration ratio of effector molecules of test group and control group)” value was found to be 3.59.
